The structures appear in SMILES notation.

The experiment concerns the target Cytosol aminopeptidase (Homo sapiens, UniProt P28838). Kind of experiment: Inhibitory activity against leucine aminopeptidase.

Chain of Cytosol aminopeptidase (P28838 whole entry): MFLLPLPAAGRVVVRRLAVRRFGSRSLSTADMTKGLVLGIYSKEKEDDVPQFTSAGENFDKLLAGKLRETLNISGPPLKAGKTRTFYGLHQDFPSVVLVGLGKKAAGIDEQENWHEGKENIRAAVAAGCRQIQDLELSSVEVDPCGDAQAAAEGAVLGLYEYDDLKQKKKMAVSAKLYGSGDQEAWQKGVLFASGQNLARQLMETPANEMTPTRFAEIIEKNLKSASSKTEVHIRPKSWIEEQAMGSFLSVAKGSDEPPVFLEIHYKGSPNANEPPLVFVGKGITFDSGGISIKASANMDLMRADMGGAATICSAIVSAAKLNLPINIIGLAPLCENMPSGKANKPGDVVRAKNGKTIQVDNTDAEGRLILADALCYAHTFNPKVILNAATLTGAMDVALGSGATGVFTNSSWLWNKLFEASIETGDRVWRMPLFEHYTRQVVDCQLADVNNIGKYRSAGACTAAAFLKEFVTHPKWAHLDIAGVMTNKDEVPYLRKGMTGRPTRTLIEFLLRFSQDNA

For the compound `COC(=O)/C=C\C(=O)[C@@H](N)CC(C)C`, the affinity, expressed as Ki, was 76 nM.

As usually defined, the Ki is the equilibrium dissociation constant of an inhibitor or competing ligand from its target. A higher Ki goes with a looser hold on the target.

(Values after ChEMBL document CHEMBL1133220, “Potent new leucine aminopeptidase inhibitor of novel structure synthesised by a modified Wadsworth-Emmons (Horner) Wittig procedure” (Bioorg Med Chem Lett, 2000).)
